Series [1] concerns Hepatitis C virus. The series can be described thus: Antiviral activity against HCV genotype 1b by cell-based luciferase reporter gene assay. The class given is functional, organism-based, Hepacivirus hominis.
A short description of series [2]: Inhibition of HCV genotype 1b NS5B delta21 polymerase. Further details: species or system Hepatitis C virus subtype 1b.
Series [3] in a line: Solubility of the compound at pH 2 after 24 hrs by shake-flask method. Format: physicochemical. The following applies: buffer, pH 2, 24 h.
Series [4] in a line: Half life in rat liver microsomes at 2 uM. The class given is ADME.
A short description of series [5]: Half life in human liver microsomes at 2 uM. Format: ADME.
Series [6] in a line: Permeability across apical to basolateral side in human Caco2 cells. The class given is ADME, cell-based. The following applies: Caco-2, read-out: permeability. On the technique in general: Passage across Caco-2 layers is used to estimate intestinal permeability.
The nature of series [7]: Dissociation constant, pKa of the compound. Format: physicochemical.
A short description of series [8]: Lipophilicity, log D of the compound at pH 7.4. Format: physicochemical. The following applies: buffer.

For `CC(C)N(c1cc(Oc2ccccc2)ccc1C(=O)O)C(=O)[C@H]1CC[C@H](C)CC1`, the EC50 in series [1] came out at 11000 nM. In series [2], this compound came in with an IC50 of 740 nM.
On to `Cc1ccc(S(=O)(=O)Nc2ccc(Oc3cccc(C(=O)O)c3)cc2C(=O)O)cc1`, for which the EC50 in series [1] was over 30000 nM. In addition, the half-maximal inhibitory concentration (IC50) in series [2] worked out at 330 nM.
`CC(C)N(c1ccc(Oc2ncccc2C(F)(F)F)cc1C(=O)O)C(=O)[C@H]1CC[C@H](C)CC1` yielded a solubility in series [3] of under 0.1 µg/mL. Further, the half-life at 2 µM in series [4] turned out to be 1 h; in series [5], 1.15 h. Also, the midpoint of inhibition in series [2], the IC50, lay at 80 nM.
Take `CC(C)N(c1cc(Oc2ccccc2C(F)(F)F)ccc1C(=O)O)C(=O)[C@H]1CC[C@H](C)CC1`: in series [1], the EC50 was determined as 4500 nM. This compound displayed an IC50 in series [2] of 1300 nM.
The compound `CC(C)N(c1ccc(Oc2ccccc2C2CC2)cc1C(=O)O)C(=O)[C@H]1CC[C@H](C)CC1` displayed an EC50 in series [1] of 4300 nM. For the same compound, half-maximal inhibition in series [2] (IC50) required 330 nM.
The like results for `Cc1ccc(S(=O)(=O)Nc2ccc(Oc3ccc(C(=O)O)cc3)cc2C(=O)O)cc1` were, in that order, over 30000 nM and 85 nM.
In the same order, the values of `CC(C)N(c1ccc(Oc2ccccc2)cc1C(=O)O)C(=O)[C@H]1CC[C@H](C(F)(F)F)CC1` are 16000 nM and 2000 nM.
The like results for `CC(C)N(c1ccc(Oc2ccccc2OC(F)(F)F)cc1C(=O)O)C(=O)[C@H]1CC[C@H](C)CC1` were, in that order, 2800 nM and 740 nM.
As to `Cc1ccc(S(=O)(=O)Nc2ccc(Oc3ccccc3C)cc2C(=O)O)cc1`, the EC50 in series [1] is over 30000 nM. In series [2], this compound displayed an IC50 of 530 nM.
The compound `O=C(O)c1ccc(Oc2ccccc2C(F)(F)F)cc1NS(=O)(=O)c1ccc(Br)s1` displayed a half-maximal effective concentration (EC50) in series [1] of over 30000 nM. In addition, the concentration for half-maximal inhibition (IC50) in series [2] was 3000 nM.
The like results for `Cc1ccc(S(=O)(=O)Nc2ccc(Oc3ccccc3OC(F)(F)F)cc2C(=O)O)cc1` were, in that order, 7000 nM and 370 nM.
Regarding `Cc1ccc(S(=O)(=O)Nc2ccc(Oc3ccccc3C(F)(F)F)cc2C(=O)O)cc1`, the Papp A→B in series [6] stood at 3.6 ×10⁻⁶ cm/s. Also, the response in series [1] was half-maximal at 7300 nM (EC50). Also, the midpoint of inhibition in series [2], the IC50, lay at 270 nM. In addition, the half-life at 2 µM in series [5] amounted to 0.2 h.
In turn, `CC(C)N(c1ccc(Oc2ccccc2C(C)(F)F)cc1C(=O)O)C(=O)[C@H]1CC[C@H](C)CC1` showed an EC50 in series [1] of 620 nM. The IC50 in series [2] amounted to 300 nM.
In series [1], `CC(C)N(C(=O)c1ccc(Br)cc1F)c1cc(Oc2ccccc2)ccc1C(=O)O` yielded a half-maximal effective concentration (EC50) of over 10000 nM. The same compound yielded an IC50 in series [2] of 1400 nM.
Turning to `Cc1ccc(S(=O)(=O)Nc2ccc(Oc3cccc(C)c3)cc2C(=O)O)cc1`, the EC50 in series [1] is over 30000 nM. The compound also had a half-inhibitory concentration (IC50) in series [2] of 470 nM.
In the case of `Cc1ccc(Oc2ccc(C(=O)O)c(NS(=O)(=O)c3ccc(Br)s3)c2)cc1`, in series [2], the midpoint of inhibition, the IC50, lay at 1900 nM.
As to `CC(C)N(c1ccc(Oc2ccncc2C(F)(F)F)cc1C(=O)O)C(=O)[C@H]1CC[C@H](C)CC1`, the response in series [1] was half-maximal at 170 nM (EC50). In series [2], this compound registered a 50% inhibitory concentration (IC50) of 190 nM.
As to `O=C(O)c1cccc(Oc2ccc(C(=O)O)c(NS(=O)(=O)c3ccc(Br)s3)c2)c1`, inhibition in series [2] was half-maximal at 1400 nM (IC50).
`O=C(O)c1cc(Oc2ccccc2)ccc1NS(=O)(=O)c1ccc(Br)cc1F` returned a concentration giving a half-maximal response (EC50) in series [1] of over 30000 nM. Besides, the half-inhibitory concentration (IC50) in series [2] was found to be 340 nM.
`CC(C)N(c1ccc(Oc2cccc(C(F)(F)F)c2)cc1C(=O)O)C(=O)[C@H]1CC[C@H](C)CC1` returned a half-maximal effective concentration (EC50) in series [1] of 6300 nM. In series [2], this compound returned an IC50 of 470 nM.
The like results for `CC(C)N(c1cc(Oc2ccccc2)ccc1C(=O)O)C(=O)[C@H]1CC[C@H](C(F)(F)F)CC1` were, in that order, 16000 nM and 1300 nM.
In the case of `O=C(O)c1ccc(Oc2ccccc2)cc1NS(=O)(=O)c1ccc(Br)s1`, the 50% effective concentration (EC50) in series [1] was over 25000 nM. Moreover, it took 610 nM to reach half-maximal inhibition in series [2] (IC50).
`CC(C)N(C(=O)c1ccc(Br)cc1F)c1ccc(Oc2ccccc2)cc1C(=O)O` displayed an EC50 in series [1] of over 10000 nM. This compound also came in with an IC50 in series [2] of 1640 nM.
As for `CC(C)N(c1cc(OC2CCCC2)ccc1C(=O)O)C(=O)[C@H]1CC[C@H](C)CC1`, the concentration giving a half-maximal response (EC50) in series [1] is over 50000 nM. For the same compound, the IC50 in series [2] is over 40000 nM.
In the same order, the values of `CC(C)N(c1ccc(Oc2ccccc2)cc1C(=O)O)C(=O)[C@H]1CC[C@H](C)CC1` are 5000 nM and 670 nM.
The like results for `CC(C)N(c1ccc(OC2CCCC2)cc1C(=O)O)C(=O)[C@H]1CC[C@H](C)CC1` were, in that order, 1000 nM and 460 nM.
Take `CC[C@H]1CC[C@H](C(=O)N(c2ccc(Oc3ccccc3)cc2C(=O)O)C(C)C)CC1`: in series [1], a half-maximal effect (EC50) was put at 25000 nM. Further, in series [2], half-maximal inhibition (IC50) was put at 1300 nM.
`CC(=O)Nc1ccc(Oc2ccc(NS(=O)(=O)c3ccc(C)cc3)c(C(=O)O)c2)cc1` gave an EC50 in series [1] of 30000 nM. For the same compound, in series [2], the IC50 stood at 290 nM.
The compound `CC(C)N(c1ccc(Oc2ccccc2C(F)(F)F)cc1C(=O)O)C(=O)[C@H]1CC[C@H](C)CC1` displayed a pKa in series [7] of 5.5. Further, in series [6], the Papp A→B turned out to be 15 ×10⁻⁶ cm/s. The same compound came in with a solubility in series [3] of under 0.1 µg/mL. In series [8], the logD turned out to be 2.9. The compound further had a half-life at 2 µM in series [4] of 1.3 h. In addition, the 50% inhibitory concentration (IC50) in series [2] is 190 nM.
In series [1], `CC(C)N(c1ccc(Oc2ccccc2Br)cc1C(=O)O)C(=O)[C@H]1CC[C@H](C)CC1` had a concentration giving a half-maximal response (EC50) of 4900 nM. In series [2], this compound gave an IC50 of 450 nM.
As to `Cc1ccc(S(=O)(=O)Nc2ccc(OC3CCCC3)cc2C(=O)O)cc1`, a half-maximal response in series [1] (EC50) required 8600 nM. The same compound had an IC50 in series [2] of 210 nM.
`Cc1ccccc1Oc1ccc(C(=O)O)c(NS(=O)(=O)c2ccc(Br)s2)c1` had a concentration for half-maximal inhibition (IC50) in series [2] of 1500 nM.
`Cc1ccc(Oc2ccc(NS(=O)(=O)c3ccc(C)cc3)c(C(=O)O)c2)cc1` displayed an EC50 in series [1] of over 30000 nM. For the same compound, the half-maximal inhibitory concentration (IC50) in series [2] is 780 nM.
The like results for `CC[C@H]1CC[C@H](C(=O)N(c2cc(Oc3ccccc3)ccc2C(=O)O)C(C)C)CC1` were, in that order, over 40000 nM and 4300 nM.
As to `CC(=O)Nc1ccc(Oc2ccc(C(=O)O)c(NS(=O)(=O)c3ccc(Br)s3)c2)cc1`, inhibition in series [2] was half-maximal at 2900 nM (IC50).
For the compound `O=C(O)c1ccc(Oc2ccc(C(=O)O)c(NS(=O)(=O)c3ccc(Br)s3)c2)cc1`, 2200 nM corresponded to half-maximal inhibition in series [2] (IC50).
Compound `CC(C)N(c1ccc(Oc2ccccc2C(F)F)cc1C(=O)O)C(=O)[C@H]1CC[C@H](C)CC1` had an EC50 in series [1] of 1100 nM. This compound also yielded an IC50 in series [2] of 200 nM.
The like results for `Cc1ccc(S(=O)(=O)Nc2cc(Oc3ccccc3)ccc2C(=O)O)cc1` were, in that order, over 30000 nM and 160 nM.
In the same order, the values of `Cc1ccc(S(=O)(=O)Nc2ccc(Oc3ccccc3)cc2C(=O)O)cc1` are over 30000 nM and 220 nM.
In series [2], `Cc1cccc(Oc2ccc(C(=O)O)c(NS(=O)(=O)c3ccc(Br)s3)c2)c1` gave a 50% inhibitory concentration (IC50) of 1100 nM.
The compound `O=C(O)c1ccc(Oc2ccccc2)cc1NS(=O)(=O)c1ccc(Br)cc1F` returned an EC50 in series [1] of over 30000 nM. Moreover, the 50% inhibitory concentration (IC50) in series [2] stood at 310 nM.

As usually defined, the EC50 is the concentration giving half of the maximal effect. Low readings indicate an effect from little substance, high ones a need for much substance. One may read the IC50 as the midpoint of a concentration-inhibition curve. The low end stands for greater potency in that assay, the high end for weaker potency in that assay. As usually defined, the solubility is how much of the substance goes into solution per volume. Low readings indicate little dissolved substance, high ones much dissolved substance. One may read the half-life as the time in which the quantity being followed falls by half. Low values mean fast loss, high ones slow loss. As usually defined, the pKa is the negative logarithm of the acid dissociation constant. Low readings indicate a group that gives up its proton readily, high ones a group that holds its proton tightly. One may read the logD as lipophilicity at a set pH, counting ionised and neutral species. A lower logD goes with lower lipophilicity.
